The record followed here is US20080260857A1, “Substance and Method for Treating Neoplasms” (priority 2005, published 2008).

The test system of this experiment is myeloma NS/0 cells. Description: Myeloma NS/0 tumor in mice. Type of experiment: in vivo, DBA/BALB(F1) mice. Particulars: Table 3; i.p. 0.5 ml once a day for 5 days from day 3; Succinate 0.1 mg/mouse, IFN 10^5 IU/mouse, rubomicin 0.016 mg/mouse, etoposide 0.03 mg/mouse; day 21; light water 99.90%; mean ±SD (n=5). As for the experimental part:
Procedure. DBA/BALB(F1) mice were injected i.p. with 3×10^6 myeloma NS/0 cells to induces tumor. Myeloma NS/O-bearing mice were treated for 5 days since the third day of tumor implantation singly a day with i.p. injection of 0.5 ml saline made on the control water or 0.5 ml saline made on light water. Tumor masses and percent of mitotic cells in bone marrow were measured on day 21. Data are presented in Table 2 as tumor mass mean ±SD (n=5).
Materials and tumor implantation procedure were as described in example 3. Interferon-alpha2b, rubomicin, and etoposide were used as typical anti-neoplasm agents.
Myeloma NS/O-bearing mice were treated for 5 days since the third day singly a day with i.p. injection of 0.5 ml saline made on the water (control), 0.5 ml solution of 0.1 mg/mouse disodium succinate hexahydrate (Succinate) made on the control water, 0.5 ml solution of 10^5 IU/mouse interferon-alpha2b (IFN) made on the control water, 0.5 ml solution of 0.016 mg/mouse rubomicin made on the control water, 0.5 ml solution of 0.03 mg/mouse etoposide made on the control water; 0.5 ml saline made on light water, or 0.5 ml solution of 0.1 mg/mouse disodium succinate hexahydrate (Succinate) made on the light water, and 0.5 ml solution of 10^5 IU/mouse interferon-alpha2b (IFN) made on the light water, 0.5 ml solution of 0.016 mg/mouse rubomicin made on the light water, 0.5 ml solution of 0.03 mg/mouse etoposide made on the light water. Tumor masses were measured on day 21. Data are presented in Table 3 as tumor mass mean ±SD (n=5).
Consider `O.O.O.O.O.O.O=C([O-])CCC(=O)[O-].[Na+].[Na+]` [Control water + Succinate, disodium succinate hexahydrate], for which the “Tumor Mass” value amounted to 1780 ± 220 mg/mouse. On to `COc1cc([C@@H]2c3cc4c(cc3[C@@H](O[C@@H]3O[C@@H]5CO[C@@H](C)O[C@H]5[C@H](O)[C@H]3O)[C@H]3COC(=O)[C@H]23)OCO4)cc(OC)c1O` [Control water + etoposide, etoposide], for which the “Tumor Mass” value was 1050 ± 120 mg/mouse. With “interferon-alpha2b [Control water + IFN]” the figure was 1460 ± 180 mg/mouse. For rubomicin [Control water + rubomicin], the “Tumor Mass” value was determined as 1270 ± 150 mg/mouse.
